# Assay results reported in patent US9815796B2 (Merck Sharp & Dohme Corp., priority 2013, dated 2017).
# Biological target: human PDE2A1 (Homo sapiens (Human), UniProt O00408)
# Test: IMAP FP PDE selectivity panel, human PDE2A1
# Assay type: biochemical
# Details: Human PDE2, Lab B; read-out: Human PDE2 Ki (nM) - Lab B
# How it was run: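 IMAP FP format: substrate 50 nM FAM-cAMP plus 1000 nM cGMP, enzyme (insect-cell GST-tagged human PDE2A1) at ~20% conversion, 60 min reaction at room temperature. Apparent inhibition constants calculated from parallel/perpendicular fluorescence with KM 10,000 nM.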
# Chain of human PDE2A1 (O00408 other isoform, or with tags, fused parts or gaps): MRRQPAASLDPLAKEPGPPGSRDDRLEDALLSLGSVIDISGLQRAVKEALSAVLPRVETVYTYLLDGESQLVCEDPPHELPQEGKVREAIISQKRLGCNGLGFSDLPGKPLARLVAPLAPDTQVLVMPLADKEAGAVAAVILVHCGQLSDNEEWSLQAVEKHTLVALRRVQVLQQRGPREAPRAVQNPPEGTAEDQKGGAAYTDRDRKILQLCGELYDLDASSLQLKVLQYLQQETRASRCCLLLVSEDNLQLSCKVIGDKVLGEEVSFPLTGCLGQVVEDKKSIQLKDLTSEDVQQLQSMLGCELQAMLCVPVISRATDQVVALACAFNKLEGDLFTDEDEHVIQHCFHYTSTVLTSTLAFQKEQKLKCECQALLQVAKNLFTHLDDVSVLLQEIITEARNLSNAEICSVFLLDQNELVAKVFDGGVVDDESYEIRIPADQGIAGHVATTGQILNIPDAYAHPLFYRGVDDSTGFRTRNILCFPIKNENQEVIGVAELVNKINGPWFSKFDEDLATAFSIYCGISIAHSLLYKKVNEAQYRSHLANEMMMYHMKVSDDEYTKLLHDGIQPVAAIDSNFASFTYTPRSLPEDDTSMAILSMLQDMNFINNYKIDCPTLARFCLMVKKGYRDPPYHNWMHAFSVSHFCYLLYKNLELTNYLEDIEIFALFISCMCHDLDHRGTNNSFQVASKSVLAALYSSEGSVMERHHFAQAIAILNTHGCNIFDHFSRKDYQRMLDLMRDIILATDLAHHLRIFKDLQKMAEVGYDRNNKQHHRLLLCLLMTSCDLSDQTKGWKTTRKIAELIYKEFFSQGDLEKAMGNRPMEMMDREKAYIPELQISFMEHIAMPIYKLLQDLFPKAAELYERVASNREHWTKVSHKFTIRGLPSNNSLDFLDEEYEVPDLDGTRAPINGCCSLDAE
row,Compound,Ki
1,"O=C(NC1(c2ccc(C(F)(F)F)cc2F)CC1)c1cc(=O)[nH]c(-c2ncccn2)n1 [Example 579, N-{1-[2-fluoro-4-(trifluoromethyl)phenyl]cyclopropyl}-6-oxo-1,6-dihydro-2,2′-bipyrimidine-4-carboxamide]",37 nM
2,"O=C(NC1(c2ccc3c(c2)OC(F)(F)O3)CC1)c1cc(=O)[nH]c(-c2ccccc2)n1 [Example 535, N-[1-(2,2-difluoro-1,3-benzodioxol-5-yl)cyclopropyl]-6-oxo-2-phenyl-1,6-dihydropyrimidine-4-carboxamide]",24 nM
3,"O=C(NC1(c2ccc(CC(F)(F)F)cc2)CC1)c1cc(=O)[nH]c(-c2ncccn2)n1 [Example 578, 6-oxo-N-{1-[4-(2,2,2-trifluoroethyl)phenyl]cyclopropyl}-1,6-dihydro-2,2′-bipyrimidine-4-carboxamide]",104 nM
4,CC[C@@H](NC(=O)c1cc(=O)[nH]c(C)n1)c1ccc(C(F)F)c(F)c1 [Example 653],148 nM
5,"Cc1nc(C(=O)NC(C)(C)c2ccc(OC(F)(F)F)cc2F)cc(=O)[nH]1 [Example 597, N-{1-[2-fluoro-4-(trifluoromethoxy)phenyl]-1-methylethyl}-2-methyl-6-oxo-1,6-dihydropyrimidine-4-carboxamide]",137 nM
6,"CC(C)(NC(=O)c1cc(=O)[nH]c(-c2ncccn2)n1)c1ccc2c(c1)OC(F)(F)O2 [Example 588, N-[1-(2,2-difluoro-1,3-benzodioxol-5-yl)-1-methylethyl]-6-oxo-1,6-dihydro-2,2′-bipyrimidine-4-carboxamide]",303 nM
7,"CC1([C@@H](NC(=O)c2cc(=O)[nH]c(-c3ncccn3)n2)c2ccc(C(F)(F)F)c(F)c2)CC1 [Example 583, N-[(R)-[3-fluoro-4-(trifluoromethyl)phenyl](1-methylcyclopropyl)methyl]-6-oxo-1,6-dihydro-2,2′-bipyrimidine-4-carboxamide]",8 nM
8,"CC1([C@@H](NC(=O)c2cc(=O)[nH]c(-c3ncccn3)n2)c2ccc3c(c2)OC(F)(F)O3)CC1 [Example 585, N-[(R)-(2,2-difluoro-1,3-benzodioxol-5-yl)(1-methylcyclopropyl)methyl]-6-oxo-1,6-dihydro-2,2′-bipyrimidine-4-carboxamide]",39 nM
9,"CC(NC(=O)c1cc(=O)[nH]c(-c2ncccn2)n1)c1ccc(C(C)(C)C(F)(F)F)cc1 (single isomer, unassigned) [Example 701, (R)- or (S)-6-oxo-N-(1-(4-(1,1,1-trifluoro-2-methylpropan-2-yl)phenyl)ethyl)-1,6-dihydro-[2,2′-bipyrimidine]-4-carboxamide]",127 nM
10,"C[C@@H](NC(=O)c1cc(=O)[nH]c(-c2ccccc2)n1)c1cc(F)c(C(F)(F)F)cc1F [Example 550, N-{(1R)-1-[2,5-difluoro-4-(trifluoromethyl)phenyl]ethyl}-6-oxo-2-phenyl-1,6-dihydropyrimidine-4-carboxamide]",17 nM
11,"CC(C)c1ccc(C2(NC(=O)c3cc(=O)[nH]c(-c4ncccn4)n3)CC2)cc1 [Example 576, N-{1-[4-(1-methylethyl)phenyl]cyclopropyl}-6-oxo-1,6-dihydro-2,2′-bipyrimidine-4-carboxamide]",32 nM
12,"CC(NC(=O)c1cc(=O)[nH]c(-c2ncccn2)n1)c1ccc(C(C)(C)C(F)(F)F)cc1 (single isomer, unassigned) [Example 700, (S)- or (R)-6-oxo-N-(1-(4-(1,1,1-trifluoro-2-methylpropan-2-yl)phenyl)ethyl)-1,6-dihydro-[2,2′-bipyrimidine]-4-carboxamide]",> 2960 nM
13,"Cc1nc(C(=O)N[C@@H](c2ccc(C(F)F)c(F)c2)C(C)(C)C)cc(=O)[nH]1 [Example 646, N-{(1R)-1-[4-(difluoromethyl)-3-fluorophenyl]-2,2-dimethylpropyl}-2-methyl-6-oxo-1,6-dihydropyrimidine-4-carboxamide]",15 nM
14,"CC(C)(NC(=O)c1cc(=O)[nH]c(-c2ncccn2)n1)c1ccc(C(F)(F)F)cc1F [Example 573, N-{1-[2-fluoro-4-(trifluoromethyl)phenyl]-1-methylethyl}-6-oxo-1,6-dihydro-2,2′-bipyrimidine-4-carboxamide]",88 nM
15,"CC(C)(C)[C@@H](NC(=O)c1cc(=O)[nH]c(-c2ncccn2)n1)c1ccc(OC(F)F)c(F)c1 [Example 589, N-{(1R)-1-[4-(difluoromethoxy)-3-fluorophenyl]-2,2-dimethylpropyl}-6-oxo-1,6-dihydro-2,2′-bipyrimidine-4-carboxamide]",22 nM
16,"Cc1nc(C(=O)N[C@](C)(CO)c2ccc(C(F)(F)F)cc2Cl)cc(=O)[nH]1 [Example 640, N-{(1S)-1-[2-chloro-4-(trifluoromethyl)phenyl]-2-hydroxy-1-methylethyl}-2-methyl-6-oxo-1,6-dihydropyrimidine-4-carboxamide]",4.4 nM
17,"CC(C)(C)[C@@H](NC(=O)c1cc(=O)[nH]c(-c2ncccn2)n1)c1ccc(C(F)(F)F)cc1F [Example 565, N-{(1R)-1-[2-fluoro-4-(trifluoromethyl)phenyl]-2,2-dimethylpropyl}-6-oxo-1,6-dihydro-2,2′-bipyrimidine-4-carboxamide]",7 nM
18,"CC1([C@@H](NC(=O)c2cc(=O)[nH]c(-c3ncccn3)n2)c2ccc(OC(F)F)cc2)CC1 [Example 584, N-[(R)-[4-(difluoromethoxy)phenyl](1-methylcyclopropyl)methyl]-6-oxo-1,6-dihydro-2,2′-bipyrimidine-4-carboxamide]",36 nM
19,"CC(NC(=O)c1cc(=O)[nH]c(C2CC2)n1)c1ccc(C2(C(F)(F)F)CC2)cc1 (single isomer, unassigned) [Example 688, (S)- or (R)-2-cyclopropyl-6-oxo-N-(1-(4-(1-(trifluoromethyl)cyclopropyl)phenyl)-ethyl)-1,6-dihydropyrimidine-4-carboxamide]",> 2960 nM
20,"Cc1nc(C(=O)N[C@]2(c3ccc(C(C)C)cc3)C[C@H]2C)cc(=O)[nH]1 (single isomer, unassigned) [Example 664, 2-methyl-N-{2-methyl-1-[4-(1-methylethyl)phenyl]cyclopropyl}-6-oxo-1,6-dihydropyrimidine-4-carboxamide]",~1570 nM
21,"CC(C)(C)C(NC(=O)c1cc(=O)[nH]c(-c2ncco2)n1)c1ccc(C(F)(F)F)cc1 (single isomer, unassigned) [Example 682, (R)- or (S)-N-(2,2-dimethyl-1-(4-(trifluoromethyl)phenyl)propyl)-2-(oxazol-2-yl)-6-oxo-1,6-dihydropyrimidine-4-carboxamide]",48 nM
22,"Cc1nc(C(=O)N[C@@H](c2ccc(C(F)(F)F)c(F)c2)C(C)(C)O)cc(=O)[nH]1 [Example 723, N-{(1S)-1-[3-fluoro-4-(trifluoromethyl)phenyl]-2-hydroxy-2-methylpropyl}-2-methyl-6-oxo-1,6-dihydropyrimidine-4-carboxamide]",8.6 nM
23,"CC(C)(C)[C@@H](NC(=O)c1cc(=O)[nH]c(-c2ccccc2)n1)c1ccc(S(F)(F)(F)(F)F)cc1 [Example 540, N-{(1R)-2,2-dimethyl-1-[4-(pentafluoro-λ^6-sulfanyl)phenyl]propyl}-6-oxo-2-phenyl-1,6-dihydropyrimidine-4-carboxamide]",1.6 nM
24,"Cc1nc(C(=O)N[C@@](C)(CO)c2ccc(C(F)(F)F)cc2)cc(=O)[nH]1 [Example 635, N-{(1R)-2-hydroxy-1-methyl-1-[4-(trifluoromethyl)phenyl)ethyl}-2-methyl-6-oxo-1,6-dihydropyrimidine-4-carboxamide]",59 nM
